Measurements from patent US20220025419A1, “N-GLYCOSYLATION OF PEPTIDES AND PROTEINS” (priority 2013, published 2022).

Columns and labels:
[1] = target: T1, PglB (Campylobacter jejuni subsp. jejuni serotype O:2, UniProt Q0P9C8); conditions: glycolipid 1-200 μM, peptide 20 μM, PglB 0.44 μM, reaction time <2 h, duplicate
Description: Reaction mixtures were prepared as described above in Example 6 and incubated in a thermo cycler for 2 h at 30° C. Glycosylation was terminated by flash increasing of temperature to 95° C. for 2 minutes. Peptide mixtures were cleaned up and subjected to UPLC. The separation of the glycosylated peptide from unglycosylated was achieved by normal phase using Waters Acquity UPLC column (BEH glycan, 2.1×150 mm, 1.7-μm particles). Concentration of un- and glycosylated peptides was measured by calculating the area of corresponding peaks (FIG. 3.)

[2] = target: T1, PglB; experiment: Synthetic optimization of peptide glycosylation by PglB, HPLC/LC-MS conversion; format: biochemical; design: 10His (C); made in house; host or cells: E. coli Rosetta; conditions: peptide:glycolipid 1:5, RT overnight, HPLC peak areas, FIG. 2a
Description: To a 10 μL of purified PglB (40 μM) in 1.5 mL eppendorf tube was added 34 μL of buffer (HEPES 10 mM, pH 7.5 containing 1 mM MnCl2 and 1% Triton-X 100). […] For the gel analysis, 8 μL of reaction mixture was treated with 2 μL of 4X SDS sample buffer and heated to 90° C. for 5 minutes. Analytical HPLC was carried out on a Waters 2795 separation module HPLC instrument equipped with a Jasco FP-920 Intelligent Fluorescent Detector (Excitation at 542 nm, Emission at 572 nm). Phenomenex Jupiter 4μ proteo 90A (250×4.6 mm) column was used with a gradient of 0-20%, 20-45%, 45-95% Acetonitrile with 0.1% formic acid at a flow rate of 1 ml/min. Product eluted with a retention time of 6.6 min and identification was performed using the Micromass LCT (TOF ESI). Conversion of the reaction was quantified by integration of the respective peak areas of product and remaining starting peptide.

[3] = target: T1, PglB; experiment: In vitro glycosylation of AcrA protein by PglB, ES-MS analysis; format: biochemical; design: 10His (C); made in house; host or cells: E. coli Rosetta; conditions: AcrA-His6 129 pmol, glycolipid 25.6 nmol, 25° C., 36 hours
Source text: Using the process described in Example 6a the two consensus Asn sites in the C. jejuni AcrA protein (overexpressed and purified from E. coli using pET24 (AcrA-Cys) according to the literature protocol [Kowarik, M. et. al., Science, 2006, 314, 1148-1150; Lazar, M. N. et. al., Glycobiology, 2005, 15 (4), 361-367]) were glycosylated using glycolipid substrates (Examples 2 and 4).

T1 sequence (Q0P9C8 whole entry): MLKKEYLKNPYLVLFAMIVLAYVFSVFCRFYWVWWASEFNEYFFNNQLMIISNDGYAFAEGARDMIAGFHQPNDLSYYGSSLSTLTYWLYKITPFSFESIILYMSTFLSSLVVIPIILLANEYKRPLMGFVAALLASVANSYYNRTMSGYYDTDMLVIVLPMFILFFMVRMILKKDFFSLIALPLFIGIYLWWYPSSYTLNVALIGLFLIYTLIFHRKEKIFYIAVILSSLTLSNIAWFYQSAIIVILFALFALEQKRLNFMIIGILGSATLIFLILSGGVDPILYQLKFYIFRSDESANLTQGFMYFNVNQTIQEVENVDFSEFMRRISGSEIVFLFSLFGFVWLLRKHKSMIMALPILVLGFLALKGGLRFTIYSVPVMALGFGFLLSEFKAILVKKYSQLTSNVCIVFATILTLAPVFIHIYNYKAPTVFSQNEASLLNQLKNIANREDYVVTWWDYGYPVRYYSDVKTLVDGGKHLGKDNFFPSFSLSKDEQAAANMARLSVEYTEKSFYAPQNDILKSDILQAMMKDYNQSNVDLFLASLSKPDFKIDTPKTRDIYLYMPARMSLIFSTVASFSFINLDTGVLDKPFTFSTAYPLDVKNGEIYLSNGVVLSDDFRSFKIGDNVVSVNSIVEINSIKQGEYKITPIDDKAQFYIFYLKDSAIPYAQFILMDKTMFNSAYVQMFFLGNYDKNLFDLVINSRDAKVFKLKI

`CC(=O)NC1[C@@H](OP(=O)(O)OP(=O)(O)OC/C=C(/C)CC/C=C(/C)CC/C=C(/C)CCC=C(C)C)OC(CO)[C@@H](O)[C@@H]1O` (stereo partly drawn) [Example 1, P^1-2-Acetamido-2-deoxy-α-D-glucopyranosyl P^2-(2Z,6Z,10Z)-3,7,11,15-tetramethyl hexadeca-2,6,10,14-tetraen-1-yl diphosphate] was tested, and the Km [1] was 77 ± 16 µM and the kcat [1] was 0.00039 ± 3.5e-05 s⁻¹.
`CC(=O)NC1[C@@H](OP(=O)([O-])OP(=O)([O-])OC/C=C(/C)CC/C=C(/C)CC/C=C(/C)CC/C=C(/C)CC/C=C(\C)CCC=C(C)C)OC(CO)[C@@H](O)[C@@H]1O.[Na+].[Na+]` (stereo partly drawn) [Example 4, P^1-2-Acetamido-2-deoxy-α-D-glucopyranosyl P^2-(2Z,6Z,10Z,14Z,18E)-3,7,11,15,19,23-hexamethyltetraicosa-2,6,10,14,18,22-hexaen-1-yl diphosphate] was tested, and the Km [1] was 55 ± 10 µM, the kcat [1] was 0.000385 ± 2.67e-05 s⁻¹ and the “conversion, optimised glycosylation of TAMRA-peptide” value [2] was 92%. The “conversion to the diglycosylated AcrA protein” value [3] was greater than 95%.
For `CC(=O)NC1C(O)[C@H](O)C(CO)O[C@@H]1OP(=O)(O)OP(=O)(O)OC/C=C(/C)CC/C=C(/C)CC/C=C(/C)CC/C=C(/C)CC/C=C(/C)CC/C=C(\C)CC/C=C(\C)CCC=C(C)C` (stereo partly drawn) [Comparative Example 5, P^1-2-Acetamido-2-deoxy-α-D-glucopyranosyl P^2-(2Z,6Z,10Z,14Z,18Z,22E,26E)-3,7,11,15,19,23,27,31-octamethyldotriaconta-2,6,10,14,18,22,26,30-octaen-1-yl diphosphate, reference compound], the Km [1] was 34 ± 10 µM and the kcat [1] was 0.000375 ± 3.5e-05 s⁻¹.
